The target in assay [1] is T1, Histone-lysine N-methyltransferase NSD2 (Homo sapiens, UniProt O96028).
T1 sequence (O96028 whole entry): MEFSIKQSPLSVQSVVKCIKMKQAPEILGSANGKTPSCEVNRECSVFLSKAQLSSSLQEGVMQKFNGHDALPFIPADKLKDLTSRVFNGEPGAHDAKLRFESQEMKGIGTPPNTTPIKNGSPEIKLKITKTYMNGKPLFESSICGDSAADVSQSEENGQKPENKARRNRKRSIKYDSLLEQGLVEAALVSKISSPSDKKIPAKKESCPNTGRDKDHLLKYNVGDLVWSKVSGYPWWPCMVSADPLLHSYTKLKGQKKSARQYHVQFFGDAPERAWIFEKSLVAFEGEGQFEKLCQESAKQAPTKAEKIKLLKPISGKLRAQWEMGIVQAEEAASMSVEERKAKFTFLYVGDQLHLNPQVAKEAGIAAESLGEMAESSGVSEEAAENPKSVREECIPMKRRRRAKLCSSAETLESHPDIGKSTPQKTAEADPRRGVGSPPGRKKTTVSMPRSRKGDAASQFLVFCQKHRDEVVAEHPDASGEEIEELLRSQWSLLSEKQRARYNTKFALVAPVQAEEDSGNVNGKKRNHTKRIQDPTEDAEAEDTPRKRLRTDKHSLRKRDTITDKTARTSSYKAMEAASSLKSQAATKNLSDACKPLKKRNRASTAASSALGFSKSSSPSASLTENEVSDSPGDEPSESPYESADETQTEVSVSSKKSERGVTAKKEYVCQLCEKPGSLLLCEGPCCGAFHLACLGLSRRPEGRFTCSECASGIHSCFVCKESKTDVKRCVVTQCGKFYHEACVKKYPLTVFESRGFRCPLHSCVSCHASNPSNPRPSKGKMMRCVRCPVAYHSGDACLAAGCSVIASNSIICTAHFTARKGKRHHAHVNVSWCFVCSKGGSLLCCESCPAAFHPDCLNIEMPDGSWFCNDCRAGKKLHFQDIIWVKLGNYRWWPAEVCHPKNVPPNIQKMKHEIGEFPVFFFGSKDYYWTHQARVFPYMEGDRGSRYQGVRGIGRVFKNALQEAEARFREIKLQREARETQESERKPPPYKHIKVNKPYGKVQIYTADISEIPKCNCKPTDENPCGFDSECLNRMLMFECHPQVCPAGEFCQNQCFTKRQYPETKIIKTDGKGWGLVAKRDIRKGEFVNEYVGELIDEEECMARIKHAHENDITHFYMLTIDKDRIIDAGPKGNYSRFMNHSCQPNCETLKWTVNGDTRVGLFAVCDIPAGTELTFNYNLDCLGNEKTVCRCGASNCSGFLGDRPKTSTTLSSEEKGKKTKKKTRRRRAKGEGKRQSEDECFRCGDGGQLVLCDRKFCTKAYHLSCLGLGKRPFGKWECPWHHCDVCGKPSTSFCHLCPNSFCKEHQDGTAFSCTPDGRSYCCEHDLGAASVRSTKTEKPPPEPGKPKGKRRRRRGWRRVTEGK
Briefly: Inhibition of NSD2 (unknown origin) preincubated for 15 mins followed by addition of [3H]-SAM as substrate and peptide solution after 240 mins cold SAM was added measured by radioisotope assay.

The target of assay [2] is T2, Histone-lysine N-methyltransferase SMYD3 (Homo sapiens, UniProt Q9H7B4).
T2 sequence (Q9H7B4 whole entry): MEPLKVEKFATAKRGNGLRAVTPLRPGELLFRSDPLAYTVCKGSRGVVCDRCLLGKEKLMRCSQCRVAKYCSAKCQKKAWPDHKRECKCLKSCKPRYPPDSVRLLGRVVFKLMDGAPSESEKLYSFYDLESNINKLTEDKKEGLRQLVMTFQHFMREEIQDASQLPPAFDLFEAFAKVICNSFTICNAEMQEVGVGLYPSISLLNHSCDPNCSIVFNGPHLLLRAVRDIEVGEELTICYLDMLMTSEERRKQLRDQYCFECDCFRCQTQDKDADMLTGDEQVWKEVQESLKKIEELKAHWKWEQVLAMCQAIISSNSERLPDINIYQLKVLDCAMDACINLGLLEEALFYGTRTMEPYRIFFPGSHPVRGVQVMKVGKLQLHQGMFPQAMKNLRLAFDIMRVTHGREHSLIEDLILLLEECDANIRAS
The experiment in a line: Inhibition of SMYD3 (unknown origin) preincubated for 15 mins followed by addition of [3H]-SAM as substrate and peptide solution after 240 mins cold SAM was added measured after 1 hr by radioisotope assay.

The next assay deals with MCF7. Briefly: Antiproliferation activity against human MCF7 cells assessed as reduction in cell viability measured by Cell-titer-Glo assay. The assay is classed as functional, cell-based.
Assay [3] has as its target T3, Histone-lysine N-methyltransferase SETD7 (Homo sapiens, UniProt Q8WTS6).
T3 sequence (Q8WTS6 whole entry): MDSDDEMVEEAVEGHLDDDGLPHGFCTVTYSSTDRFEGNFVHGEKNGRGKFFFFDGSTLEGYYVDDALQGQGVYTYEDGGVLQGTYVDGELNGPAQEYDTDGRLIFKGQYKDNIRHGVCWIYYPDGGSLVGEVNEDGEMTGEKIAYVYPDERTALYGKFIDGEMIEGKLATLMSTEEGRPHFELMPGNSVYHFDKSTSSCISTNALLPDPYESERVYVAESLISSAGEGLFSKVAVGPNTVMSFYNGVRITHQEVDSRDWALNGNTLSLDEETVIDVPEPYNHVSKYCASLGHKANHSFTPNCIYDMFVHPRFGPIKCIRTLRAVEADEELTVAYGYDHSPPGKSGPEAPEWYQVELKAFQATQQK
Briefly: Inhibition of human SET7 overexpressed in Escherichia coli BL21 (DE3) cells preincubated for 15 mins followed by addition of SAM as substrate and biotinylated Histone H3 (1-50) peptide measured after 30 mins by AlphaLISA assay relative to control.

The species entered for a further assay is Homo sapiens. The experiment in a line: Antiproliferation activity against human UMCHOR1 cells assessed as reduction in cell viability measured by Cell-titer-Glo assay. The assay is classed as functional, cell-based.
Assay [4] deals with Histone-lysine N-methyltransferase 2A (Homo sapiens, UniProt Q03164). The experiment in a line: Inhibition of MLL1 (unknown origin) preincubated for 15 mins followed by addition of substrate measured after 1 hr by AlphaLISA assay. Background: Alpha assays give light when donor and acceptor beads are brought close together.
Chain of Histone-lysine N-methyltransferase 2A (Q03164 1-2718 limits assumed): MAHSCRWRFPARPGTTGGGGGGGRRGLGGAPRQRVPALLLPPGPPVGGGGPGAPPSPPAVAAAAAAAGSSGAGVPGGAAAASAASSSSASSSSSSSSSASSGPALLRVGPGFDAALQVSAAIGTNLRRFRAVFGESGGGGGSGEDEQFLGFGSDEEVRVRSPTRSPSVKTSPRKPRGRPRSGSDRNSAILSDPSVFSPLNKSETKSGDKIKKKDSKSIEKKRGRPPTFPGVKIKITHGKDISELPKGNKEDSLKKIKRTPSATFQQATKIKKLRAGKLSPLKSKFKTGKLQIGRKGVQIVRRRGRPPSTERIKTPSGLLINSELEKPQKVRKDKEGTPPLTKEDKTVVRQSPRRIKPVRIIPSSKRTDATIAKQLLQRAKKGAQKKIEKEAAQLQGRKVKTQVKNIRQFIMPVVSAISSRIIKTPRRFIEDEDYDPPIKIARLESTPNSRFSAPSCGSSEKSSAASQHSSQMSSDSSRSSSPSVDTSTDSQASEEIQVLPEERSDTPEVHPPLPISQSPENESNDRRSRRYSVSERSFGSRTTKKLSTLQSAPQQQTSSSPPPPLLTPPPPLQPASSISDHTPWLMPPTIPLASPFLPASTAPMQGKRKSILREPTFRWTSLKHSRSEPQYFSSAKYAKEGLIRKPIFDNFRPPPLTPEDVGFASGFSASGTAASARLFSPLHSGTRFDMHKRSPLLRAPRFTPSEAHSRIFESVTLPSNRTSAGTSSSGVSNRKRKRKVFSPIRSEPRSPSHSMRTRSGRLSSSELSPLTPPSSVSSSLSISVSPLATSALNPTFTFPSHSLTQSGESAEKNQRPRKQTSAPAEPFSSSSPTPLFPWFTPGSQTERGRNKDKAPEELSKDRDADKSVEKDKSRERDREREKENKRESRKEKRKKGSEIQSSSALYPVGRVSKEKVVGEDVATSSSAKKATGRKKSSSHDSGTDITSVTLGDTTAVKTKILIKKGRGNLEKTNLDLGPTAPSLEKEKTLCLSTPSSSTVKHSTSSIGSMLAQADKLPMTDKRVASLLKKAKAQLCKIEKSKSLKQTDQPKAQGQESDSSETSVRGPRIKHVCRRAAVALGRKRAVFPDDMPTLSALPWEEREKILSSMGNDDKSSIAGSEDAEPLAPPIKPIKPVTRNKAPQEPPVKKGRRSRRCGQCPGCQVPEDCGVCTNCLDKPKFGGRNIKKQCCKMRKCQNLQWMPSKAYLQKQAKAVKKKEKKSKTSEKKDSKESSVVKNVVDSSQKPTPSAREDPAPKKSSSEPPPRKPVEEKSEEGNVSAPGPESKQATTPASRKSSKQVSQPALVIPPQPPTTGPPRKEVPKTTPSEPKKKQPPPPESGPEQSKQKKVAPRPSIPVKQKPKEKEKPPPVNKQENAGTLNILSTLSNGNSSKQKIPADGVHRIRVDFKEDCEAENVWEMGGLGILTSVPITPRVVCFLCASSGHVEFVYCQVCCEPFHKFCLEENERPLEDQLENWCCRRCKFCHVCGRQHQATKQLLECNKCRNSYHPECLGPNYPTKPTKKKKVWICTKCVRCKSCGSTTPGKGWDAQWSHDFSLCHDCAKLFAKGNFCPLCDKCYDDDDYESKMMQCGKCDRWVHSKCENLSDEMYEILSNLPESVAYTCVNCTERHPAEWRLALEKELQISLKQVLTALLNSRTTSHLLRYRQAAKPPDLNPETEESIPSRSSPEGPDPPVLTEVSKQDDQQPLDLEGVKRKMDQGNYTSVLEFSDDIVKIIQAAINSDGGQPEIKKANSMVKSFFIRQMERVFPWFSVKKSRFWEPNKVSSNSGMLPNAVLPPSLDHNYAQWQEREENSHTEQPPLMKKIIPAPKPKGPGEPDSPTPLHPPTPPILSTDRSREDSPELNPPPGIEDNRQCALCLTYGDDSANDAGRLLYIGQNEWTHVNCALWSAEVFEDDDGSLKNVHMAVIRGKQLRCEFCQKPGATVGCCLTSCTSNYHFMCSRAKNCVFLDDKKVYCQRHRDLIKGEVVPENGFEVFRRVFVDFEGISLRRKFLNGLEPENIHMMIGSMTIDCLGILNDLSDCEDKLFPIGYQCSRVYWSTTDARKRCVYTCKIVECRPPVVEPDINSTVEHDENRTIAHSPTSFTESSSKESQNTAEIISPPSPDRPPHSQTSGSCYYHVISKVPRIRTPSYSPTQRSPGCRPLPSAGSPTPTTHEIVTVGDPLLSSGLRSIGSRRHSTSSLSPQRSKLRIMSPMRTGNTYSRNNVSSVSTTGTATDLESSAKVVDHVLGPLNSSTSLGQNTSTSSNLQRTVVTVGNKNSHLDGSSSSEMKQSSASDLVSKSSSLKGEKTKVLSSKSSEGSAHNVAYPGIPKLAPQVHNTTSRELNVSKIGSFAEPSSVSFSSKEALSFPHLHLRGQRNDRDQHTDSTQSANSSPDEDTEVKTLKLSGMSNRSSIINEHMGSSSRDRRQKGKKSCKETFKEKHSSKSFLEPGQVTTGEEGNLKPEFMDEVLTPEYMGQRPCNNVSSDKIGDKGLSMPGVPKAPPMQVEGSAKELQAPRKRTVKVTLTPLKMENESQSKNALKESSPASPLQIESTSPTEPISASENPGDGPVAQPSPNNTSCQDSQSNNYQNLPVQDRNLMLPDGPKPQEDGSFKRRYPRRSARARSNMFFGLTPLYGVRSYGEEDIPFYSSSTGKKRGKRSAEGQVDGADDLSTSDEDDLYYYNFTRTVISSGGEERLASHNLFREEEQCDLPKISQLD
Chain of Histone-lysine N-methyltransferase 2A (Q03164 2719-3969 limits assumed): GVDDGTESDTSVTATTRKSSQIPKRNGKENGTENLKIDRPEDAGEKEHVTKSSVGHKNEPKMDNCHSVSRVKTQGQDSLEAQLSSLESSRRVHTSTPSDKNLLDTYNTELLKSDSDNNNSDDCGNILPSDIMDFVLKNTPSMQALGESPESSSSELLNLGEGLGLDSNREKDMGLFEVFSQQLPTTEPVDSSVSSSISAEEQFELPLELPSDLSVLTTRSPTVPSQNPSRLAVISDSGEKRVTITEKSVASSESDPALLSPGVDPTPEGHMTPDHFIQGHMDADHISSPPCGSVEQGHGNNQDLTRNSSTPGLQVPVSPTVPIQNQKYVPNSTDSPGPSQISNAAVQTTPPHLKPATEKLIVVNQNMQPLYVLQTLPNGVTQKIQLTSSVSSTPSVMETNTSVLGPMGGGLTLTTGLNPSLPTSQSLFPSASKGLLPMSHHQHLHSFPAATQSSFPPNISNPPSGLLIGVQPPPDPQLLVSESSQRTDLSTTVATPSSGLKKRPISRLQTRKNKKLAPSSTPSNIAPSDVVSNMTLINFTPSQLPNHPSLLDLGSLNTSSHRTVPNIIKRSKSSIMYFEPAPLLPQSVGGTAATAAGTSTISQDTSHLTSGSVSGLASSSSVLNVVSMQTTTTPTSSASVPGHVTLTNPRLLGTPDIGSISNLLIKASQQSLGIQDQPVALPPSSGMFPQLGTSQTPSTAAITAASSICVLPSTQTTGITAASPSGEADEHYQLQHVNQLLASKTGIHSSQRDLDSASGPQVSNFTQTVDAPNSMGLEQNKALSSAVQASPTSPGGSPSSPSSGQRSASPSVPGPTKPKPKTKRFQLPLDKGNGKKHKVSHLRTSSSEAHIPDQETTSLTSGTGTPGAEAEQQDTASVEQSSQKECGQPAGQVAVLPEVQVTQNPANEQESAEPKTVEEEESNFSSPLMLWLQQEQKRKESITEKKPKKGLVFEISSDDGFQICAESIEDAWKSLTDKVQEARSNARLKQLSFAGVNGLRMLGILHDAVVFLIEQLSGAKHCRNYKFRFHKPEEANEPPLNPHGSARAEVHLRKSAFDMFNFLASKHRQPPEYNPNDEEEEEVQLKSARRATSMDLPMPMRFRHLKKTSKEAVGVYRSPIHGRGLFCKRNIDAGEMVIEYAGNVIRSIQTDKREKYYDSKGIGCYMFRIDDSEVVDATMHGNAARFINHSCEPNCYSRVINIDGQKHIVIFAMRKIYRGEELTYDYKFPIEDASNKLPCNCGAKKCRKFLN
Another assay concerns HeLa. The experiment in a line: Antiproliferation activity against human HeLa cells assessed as reduction in cell viability measured by Cell-titer-Glo assay. It counts as functional, cell-based.
A further assay has as its system A549. Briefly: Antiproliferation activity against human A549 cells assessed as reduction in cell viability measured by Cell-titer-Glo assay. It counts as functional, cell-based.
The test system of another assay is MDA-MB-231. The experiment in a line: Antiproliferation activity against human MDA-MB-231 cells assessed as reduction in cell viability measured by Cell-titer-Glo assay. It counts as functional, cell-based.
In a further assay the test system is MV4-11. The experiment in a line: Antiproliferation activity against human MV4-11 cells assessed as reduction in cell viability measured by Cell-titer-Glo assay. The assay is classed as functional, cell-based.
Assay [5] concerns the target T4, Histone-lysine N-methyltransferase EZH1 (Homo sapiens, UniProt Q92800).
T4 sequence (Q92800 whole entry): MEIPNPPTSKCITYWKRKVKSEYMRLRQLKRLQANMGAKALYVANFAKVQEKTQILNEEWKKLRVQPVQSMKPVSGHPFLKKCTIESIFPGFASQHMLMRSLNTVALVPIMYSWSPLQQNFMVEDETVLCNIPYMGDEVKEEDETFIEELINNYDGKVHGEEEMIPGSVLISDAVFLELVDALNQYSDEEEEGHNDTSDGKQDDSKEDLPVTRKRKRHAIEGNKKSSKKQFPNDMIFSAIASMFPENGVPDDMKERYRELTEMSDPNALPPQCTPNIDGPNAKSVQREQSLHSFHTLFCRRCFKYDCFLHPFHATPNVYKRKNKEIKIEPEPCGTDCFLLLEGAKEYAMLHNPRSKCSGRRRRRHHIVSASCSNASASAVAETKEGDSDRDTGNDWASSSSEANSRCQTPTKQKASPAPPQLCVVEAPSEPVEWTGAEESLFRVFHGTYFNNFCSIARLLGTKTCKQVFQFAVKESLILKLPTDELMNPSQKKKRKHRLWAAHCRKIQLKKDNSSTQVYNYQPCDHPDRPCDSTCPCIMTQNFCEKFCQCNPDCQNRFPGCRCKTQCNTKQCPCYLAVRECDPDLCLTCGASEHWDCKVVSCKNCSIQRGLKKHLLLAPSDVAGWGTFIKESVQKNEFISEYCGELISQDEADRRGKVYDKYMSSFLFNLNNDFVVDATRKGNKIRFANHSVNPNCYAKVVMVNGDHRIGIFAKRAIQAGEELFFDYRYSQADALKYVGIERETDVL
The experiment in a line: Inhibition of Ezh1 (unknown origin) preincubated for 15 mins followed by addition of substrate measured after 1 hr by AlphaLISA assay.

Calls of active or inactive are those of the source. The calls are words filed in the database; no cut-off is given here.

Consider one compound from ChEMBL document CHEMBL4627299, “Computational discovery and biological evaluation of novel inhibitors targeting histone-lysine N-methyltransferase SET7” (Bioorg Med Chem, 2020).

`O=c1cc(-c2ccc(O)cc2)oc2cc(O)c(O)c(O)c12` [SCUTELLAREIN]: the IC50 is 2.65 µM in [1]; 18.2 µM in assay [2]; 1.96 µM in assay [3]; 2.92 µM in [4]; 27.1 µM in the assay on MV4-11; 8.77 µM in assay [5]. The result with MCF7, in the assay listed under Homo sapiens, in the assay on HeLa, in the assay with A549 and in the assay on MDA-MB-231 was inactive.

The term IC50 denotes the concentration needed to halve the response being measured.
